In BindingDB's records for PubMed 2925675 (Nagoya University School of Medicine, 1989):

Tests used:
Experiment in all cases: Enzyme Assay
Conditions in all cases: pH 7.4; 30 °C
[1] = molecular target: cAMP-dependent protein kinase type I-alpha regulatory subunit (Bos taurus, UniProt P00514)
[2] = molecular target: Protein kinase C alpha type (Homo sapiens, UniProt P17252)
[3] = molecular target: Calcium/calmodulin-dependent protein kinase II inhibitor 2 (Bos taurus, UniProt A5D7T0)
[4] = molecular target: Casein kinase I isoform alpha (Homo sapiens, UniProt P48729)
Sequence of Casein kinase I isoform alpha (P48729 whole entry, canonical isoform): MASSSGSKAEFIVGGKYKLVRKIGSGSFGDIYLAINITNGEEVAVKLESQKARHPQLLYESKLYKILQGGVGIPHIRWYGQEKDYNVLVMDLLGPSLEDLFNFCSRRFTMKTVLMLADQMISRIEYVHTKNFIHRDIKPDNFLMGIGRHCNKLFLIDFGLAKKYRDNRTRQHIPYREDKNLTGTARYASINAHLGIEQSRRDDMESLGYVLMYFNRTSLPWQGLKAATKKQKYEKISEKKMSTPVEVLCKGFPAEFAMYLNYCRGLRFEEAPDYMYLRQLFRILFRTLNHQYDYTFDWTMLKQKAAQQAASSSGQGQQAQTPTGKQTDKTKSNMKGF
Procedure: (§1) Casein kinase activities were determined under the conditions as described by Huang et al (1982).

[5] = molecular target: Casein kinase II subunit alpha (Homo sapiens, UniProt P68400)
Sequence of Casein kinase II subunit alpha (P68400 whole entry): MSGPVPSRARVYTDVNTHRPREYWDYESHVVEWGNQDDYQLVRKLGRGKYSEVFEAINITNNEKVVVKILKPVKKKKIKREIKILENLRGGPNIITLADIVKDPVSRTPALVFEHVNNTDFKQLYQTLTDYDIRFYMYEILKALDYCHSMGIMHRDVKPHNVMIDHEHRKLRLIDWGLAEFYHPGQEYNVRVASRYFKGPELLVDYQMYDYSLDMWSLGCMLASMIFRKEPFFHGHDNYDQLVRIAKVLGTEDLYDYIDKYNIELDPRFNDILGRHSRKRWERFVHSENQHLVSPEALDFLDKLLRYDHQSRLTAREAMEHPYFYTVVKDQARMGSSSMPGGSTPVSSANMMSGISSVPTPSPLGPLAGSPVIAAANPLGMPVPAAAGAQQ
Procedure: as §1

Sequence of Calcium/calmodulin-dependent protein kinase II inhibitor 2 (A5D7T0 whole entry, canonical isoform): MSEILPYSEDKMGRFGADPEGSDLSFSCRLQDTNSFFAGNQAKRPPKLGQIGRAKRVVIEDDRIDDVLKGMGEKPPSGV
Sequence of cAMP-dependent protein kinase type I-alpha regulatory subunit (P00514 whole entry): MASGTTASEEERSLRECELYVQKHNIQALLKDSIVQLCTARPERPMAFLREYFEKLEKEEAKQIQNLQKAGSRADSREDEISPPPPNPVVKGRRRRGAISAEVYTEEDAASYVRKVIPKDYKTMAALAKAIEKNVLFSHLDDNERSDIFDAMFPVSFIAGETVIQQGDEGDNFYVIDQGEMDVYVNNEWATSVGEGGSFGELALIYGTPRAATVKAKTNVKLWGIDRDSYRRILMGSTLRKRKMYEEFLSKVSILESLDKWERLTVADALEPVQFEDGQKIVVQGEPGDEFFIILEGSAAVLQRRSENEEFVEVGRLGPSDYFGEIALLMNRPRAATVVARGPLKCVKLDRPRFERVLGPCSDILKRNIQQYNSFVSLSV

| IC50 [1] [µM] | IC50 [2] [µM] | IC50 [3] [µM] | IC50 [4] [µM] | IC50 [5] [µM] | SMILES |
| --- | --- | --- | --- | --- | --- |
| 3.6 | 18 | 58 | 110 | > 300 | NCCNS(=O)(=O)c1cccc2cnccc12 [Isoquinoline-5-sulfonic acid (2-amino-ethyl)-amide] |
| > 1000 | > 1000 | 840 | 50 | > 300 | NCCNS(=O)(=O)c1cccc2ccncc12 [Isoquinolinesulfonamide, CKI-6] |
| 550 | > 1000 | 195 | 9.5 | 90 | NCCNS(=O)(=O)c1ccc(Cl)c2ccncc12 [Isoquinolinesulfonamide, CKI-7] |
